Where “and” joins values, the source holds several entries; their conditions need not be identical. Identical values can stand only once.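 Tested at 5 concentrations; 48 h exposure; 96-well plates; endpoints linearly interpolated, else capped at highest concentration. GI50: concentration for 50% inhibition of growth. TGI: concentration producing complete growth inhibition.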
Experiments:
Test in all cases: DTP human tumour cell line panel, 48 h
LOX IMVI melanoma = tested on: LOX IMVI melanoma
SF-539 CNS = tested on: SF-539 CNS
OVCAR-8 ovarian = tested on: OVCAR-8 ovarian
MCF7 breast = tested on: MCF7 breast
NCI/ADR-RES ovarian = tested on: NCI/ADR-RES ovarian
SF-268 CNS = tested on: SF-268 CNS
NCI-H460 lung = tested on: NCI-H460 lung
RXF 393 renal = tested on: RXF 393 renal
M14 melanoma = tested on: M14 melanoma
MALME-3M melanoma = tested on: MALME-3M melanoma
HS 578T breast = tested on: HS 578T breast
SK-MEL-5 melanoma = tested on: SK-MEL-5 melanoma
SK-MEL-28 melanoma = tested on: SK-MEL-28 melanoma
PC-3 prostate = tested on: PC-3 prostate
HOP-62 NSCLC = tested on: HOP-62 NSCLC
T-47D breast = tested on: T-47D breast
SW-620 colon = tested on: SW-620 colon
OVCAR-3 ovarian = tested on: OVCAR-3 ovarian
EKVX NSCLC = tested on: EKVX NSCLC
MOLT-4 leukemia = tested on: MOLT-4 leukemia
SNB-19 CNS = tested on: SNB-19 CNS
KM12 colon = tested on: KM12 colon
A549 NSCLC = tested on: A549 NSCLC
UO-31 renal = tested on: UO-31 renal
COLO 205 colon = tested on: COLO 205 colon
RPMI-8226 leukemia = tested on: RPMI-8226 leukemia
UACC-62 melanoma = tested on: UACC-62 melanoma
A498 renal = tested on: A498 renal
OVCAR-4 ovarian = tested on: OVCAR-4 ovarian
OVCAR-5 ovarian = tested on: OVCAR-5 ovarian
NCI-H226 lung = tested on: NCI-H226 lung
SN12C renal = tested on: SN12C renal
ACHN renal = tested on: ACHN renal
TK-10 renal = tested on: TK-10 renal
K-562 leukemia = tested on: K-562 leukemia
HT29 colon = tested on: HT29 colon
IGROV1 ovarian = tested on: IGROV1 ovarian
BT-549 breast = tested on: BT-549 breast
DU-145 prostate = tested on: DU-145 prostate
MDA-N = tested on: MDA-N
SF-295 CNS = tested on: SF-295 CNS
SK-MEL-2 melanoma = tested on: SK-MEL-2 melanoma
786-0 renal = tested on: 786-0 renal
HCT-15 colon = tested on: HCT-15 colon
HCT-116 colon = tested on: HCT-116 colon
MDA-MB-231 breast = tested on: MDA-MB-231 breast
UACC-257 melanoma = tested on: UACC-257 melanoma
NCI-H23 lung = tested on: NCI-H23 lung
SNB-75 CNS = tested on: SNB-75 CNS
MDA-MB-435 = tested on: MDA-MB-435
NCI-H522 lung = tested on: NCI-H522 lung
SR leukemia = tested on: SR leukemia
HCC-2998 colon = tested on: HCC-2998 colon
CCRF-CEM leukemia = tested on: CCRF-CEM leukemia
U251 CNS = tested on: U251 CNS
SK-OV-3 ovarian = tested on: SK-OV-3 ovarian
HOP-92 NSCLC = tested on: HOP-92 NSCLC
CAKI-1 renal = tested on: CAKI-1 renal
HL-60(TB) leukemia = tested on: HL-60(TB) leukemia

## O=c1cc(/C=C/c2ccc(O)c(O)c2)cc(/C=C/c2ccc(O)c(O)c2)o1
LOX IMVI melanoma
  GI50: 5.19 µM
  TGI: 50 µM and 19.4 µM
SF-539 CNS
  GI50: 3 µM
  TGI: 17.9 µM and 10.7 µM
OVCAR-8 ovarian
  GI50: 5.5 µM
  TGI: 50 µM and 32 µM
MCF7 breast
  TGI: 18.8 µM
NCI/ADR-RES ovarian
  GI50: 12 µM
  TGI: 50 µM and 52.3 µM
SF-268 CNS
  GI50: 4.17 µM
  TGI: 16.2 µM and 16.5 µM
NCI-H460 lung
  GI50: 7.14 µM
  TGI: 50 µM and 21.6 µM
RXF 393 renal
  GI50: 3.42 µM
  TGI: 18.9 µM and 9.11 µM
M14 melanoma
  GI50: 8.94 µM
  TGI: 21.6 µM and 20.8 µM
MALME-3M melanoma
  GI50: 2.67 µM
  TGI: 22.2 µM and 19.1 µM
HS 578T breast
  GI50: 3.96 µM
  TGI: 50 µM and 34 µM
SK-MEL-5 melanoma
  GI50: 4.75 µM
  TGI: 18.1 µM and 19 µM
SK-MEL-28 melanoma
  TGI: 50 µM
PC-3 prostate
  GI50: 11 µM
  TGI: 19.9 µM and 27.7 µM
HOP-62 NSCLC
  TGI: 24.8 µM and 22.7 µM
T-47D breast
  GI50: 1.95 µM
  TGI: 27.3 µM and 4.92 µM
SW-620 colon
  GI50: 3.05 µM
  TGI: 50 µM and 12.3 µM
OVCAR-3 ovarian
  GI50: 4.92 µM
  TGI: 15.2 µM and 22 µM
EKVX NSCLC
  TGI: 15 µM and 21.9 µM
MOLT-4 leukemia
  TGI: 6.48 µM
SNB-19 CNS
  GI50: 5.8 µM
  TGI: 15.7 µM and 18 µM
KM12 colon
  GI50: 5 µM
  TGI: 16 µM and 22.7 µM
A549 NSCLC
  GI50: 5.48 µM
  TGI: 50 µM and 18.9 µM
UO-31 renal
  TGI: 14.6 µM
COLO 205 colon
  GI50: 19.1 µM
  TGI: 24.6 µM and 34.4 µM
RPMI-8226 leukemia
  GI50: 2.25 µM
  TGI: 14.9 µM and 6.7 µM
UACC-62 melanoma
  GI50: 2.5 µM
  TGI: 16.6 µM and 6.05 µM
A498 renal
  TGI: 23.4 µM
OVCAR-4 ovarian
  GI50: 3.17 µM
  TGI: 43.5 µM and 13.8 µM
OVCAR-5 ovarian
  GI50: 18.3 µM
  TGI: 24.2 µM and 42.2 µM
NCI-H226 lung
  GI50: 11 µM
  TGI: 35 µM and 33.4 µM
SN12C renal
  GI50: 6.06 µM
  TGI: 25.2 µM and 23.7 µM
ACHN renal
  GI50: 4.01 µM
  TGI: 18.8 µM and 14.5 µM
TK-10 renal
  GI50: 9.1 µM
  TGI: 50 µM and 20.9 µM
K-562 leukemia
  TGI: 8.35 µM
HT29 colon
  GI50: 21.5 µM
  TGI: 23.7 µM and 56.8 µM
IGROV1 ovarian
  GI50: 5.24 µM
  TGI: 37.5 µM and 18.1 µM
BT-549 breast
  GI50: 4.59 µM
  TGI: 38.1 µM and 16.8 µM
DU-145 prostate
  GI50: 5.29 µM
  TGI: 20.2 µM and 22.1 µM
MDA-N
  GI50: 4.72 µM
  TGI: 50 µM and 17.1 µM
SF-295 CNS
  GI50: 10.5 µM
  TGI: 19.8 µM and 22.2 µM
SK-MEL-2 melanoma
  TGI: 22.7 µM and 34.5 µM
786-0 renal
  GI50: 5.85 µM
  TGI: 50 µM and 23.2 µM
HCT-15 colon
  GI50: 4.47 µM
  TGI: 24.1 µM and 18.1 µM
HCT-116 colon
  GI50: 4.17 µM
  TGI: 15.6 µM and 15.3 µM
MDA-MB-231 breast
  GI50: 13.3 µM
  TGI: 28.3 µM and 39.8 µM
UACC-257 melanoma
  GI50: 9.98 µM
  TGI: 29.4 µM and 27.5 µM
NCI-H23 lung
  GI50: 3.49 µM
  TGI: 41.9 µM and 20.8 µM
SNB-75 CNS
  GI50: 4.3 µM
  TGI: 18.5 µM and 15.5 µM
MDA-MB-435
  GI50: 3.15 µM
  TGI: 50 µM and 11.6 µM
NCI-H522 lung
  GI50: 1.45 µM
SR leukemia
  GI50: 1.99 µM
  TGI: 14.2 µM and 6.05 µM
HCC-2998 colon
  TGI: 19.3 µM
CCRF-CEM leukemia
  GI50: 2.53 µM
  TGI: 27.1 µM and 4.86 µM
U251 CNS
  GI50: 3.61 µM
  TGI: 14.1 µM and 12.8 µM
SK-OV-3 ovarian
  GI50: 13.1 µM
  TGI: 24.1 µM and 25.8 µM
HOP-92 NSCLC
  GI50: 5.16 µM
  TGI: 47.6 µM and 17.3 µM
CAKI-1 renal
  GI50: 4.92 µM
  TGI: 31.9 µM and 14.6 µM

## CCOC(=O)c1cc2c([nH]1)c(OC(C)=O)cc1c2ccn1Cc1ccccc1
LOX IMVI melanoma
  TGI: > 100 µM
SF-539 CNS
  TGI: > 100 µM
OVCAR-8 ovarian
  TGI: > 100 µM
MCF7 breast
  TGI: > 100 µM
NCI/ADR-RES ovarian
  TGI: > 100 µM
SF-268 CNS
  TGI: > 100 µM
NCI-H460 lung
  TGI: > 100 µM
RXF 393 renal
  TGI: > 100 µM
M14 melanoma
  TGI: > 100 µM
MALME-3M melanoma
  TGI: > 100 µM
HS 578T breast
  TGI: > 100 µM
SK-MEL-5 melanoma
  TGI: > 100 µM
SK-MEL-28 melanoma
  TGI: > 100 µM
PC-3 prostate
  TGI: > 100 µM
HOP-62 NSCLC
  TGI: > 100 µM
T-47D breast
  TGI: > 100 µM
SW-620 colon
  TGI: > 100 µM
OVCAR-3 ovarian
  TGI: > 100 µM
EKVX NSCLC
  TGI: > 100 µM
MOLT-4 leukemia
  TGI: > 100 µM
SNB-19 CNS
  TGI: > 100 µM
KM12 colon
  TGI: > 100 µM
A549 NSCLC
  TGI: > 100 µM
UO-31 renal
  TGI: > 100 µM
COLO 205 colon
  TGI: > 100 µM
RPMI-8226 leukemia
  TGI: > 100 µM
UACC-62 melanoma
  TGI: > 100 µM
A498 renal
  TGI: > 100 µM
OVCAR-4 ovarian
  TGI: > 100 µM
OVCAR-5 ovarian
  TGI: > 100 µM
NCI-H226 lung
  TGI: > 100 µM
SN12C renal
  TGI: > 100 µM
K-562 leukemia
  TGI: > 100 µM
HL-60(TB) leukemia
  TGI: > 100 µM
HT29 colon
  TGI: > 100 µM
IGROV1 ovarian
  TGI: > 100 µM
BT-549 breast
  TGI: > 100 µM
DU-145 prostate
  TGI: > 100 µM
MDA-N
  TGI: > 100 µM
SF-295 CNS
  TGI: > 100 µM
SK-MEL-2 melanoma
  TGI: > 100 µM
786-0 renal
  TGI: > 100 µM
HCT-15 colon
  TGI: > 100 µM
HCT-116 colon
  TGI: > 100 µM
MDA-MB-231 breast
  TGI: > 100 µM
UACC-257 melanoma
  TGI: > 100 µM
NCI-H23 lung
  TGI: > 100 µM
SNB-75 CNS
  TGI: > 100 µM
MDA-MB-435
  TGI: > 100 µM
SR leukemia
  TGI: > 100 µM
HCC-2998 colon
  TGI: > 100 µM
CCRF-CEM leukemia
  TGI: > 100 µM
U251 CNS
  TGI: > 100 µM
SK-OV-3 ovarian
  TGI: > 100 µM
HOP-92 NSCLC
  TGI: > 100 µM
CAKI-1 renal
  TGI: > 100 µM
